Assay results as given in patent US20250019387A1 (Frontier Medicines Corporation, priority 0001, published 2025).

Target: KRAS G12C and cRAF (Ras-binding domain) interaction (Homo sapiens (Human), UniProt P01116, C118S/C51S/C80L/G12C)
Assay: Inhibition of KRAS G12C and cRAF binding (AlphaScreen)
Settings: GMPPNP-loaded KRAS G12C, 19-20 hours incubation with compound; read-out: IC50 (Inhibition of KRAS G12C and cRAF Binding)
Outline: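 Compounds (DMSO) preincubated 19-20 h at room temperature, then RBD with streptavidin donor and glutathione acceptor beads added in 25 mM Hepes pH 7.4, 150 mM NaCl, 5 mM MgCl2, 0.01% Triton X-100, 2% DMSO for 60-90 min. Emission 570 nm (excitation 680 nm); IC50 by 4-parameter fit. Counter-screen used biotin-AviTag-GST instead of RBD.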

KRAS G12C and cRAF (Ras-binding domain) interaction, sequence (P01116 other isoform, or with tags, fused parts or gaps G12C/C51S/C80L/C118S): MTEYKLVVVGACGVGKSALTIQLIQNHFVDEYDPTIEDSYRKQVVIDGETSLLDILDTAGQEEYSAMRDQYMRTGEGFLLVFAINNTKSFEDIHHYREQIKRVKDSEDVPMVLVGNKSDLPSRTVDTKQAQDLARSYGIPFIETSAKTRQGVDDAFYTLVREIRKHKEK

Structure (SMILES)	IC50
CN(c1nc(OC[C@@]23CCCN2C[C@H](F)C3)nc2c1CCN(c1cccc3cccc(Cl)c13)C2)[C@@H]1CCN(C(=O)/C=C/c2cn(C)cn2)C1 [Example 110, (E)-1-((R)-3-((7-(8-chloronaphthalen-1-yl)-2-(((2R,7aS)-2-fluorohexahydro-1H-pyrrolizin-7a-yl)methoxy)-5,6,7,8-tetrahydropyrido[3,4-d]pyrimidin-4-yl)(methyl)amino)pyrrolidin-1-yl)-3-(1-methyl-1H-imidazol-4-yl)prop-2-en-1-one]	> 500 nM
CN(c1nc(OCC23CCCN2CCC3)nc2c(F)c(-c3cccc4cccc(Cl)c34)ncc12)[C@@H]1CCN(C(=O)/C=C/c2cn(C)cn2)C1 [Example 115, (R,E)-1-(3-((7-(8-chloronaphthalen-1-yl)-8-fluoro-2-((hexahydro-1H-pyrrolizin-7a-yl)methoxy)pyrido[4,3-d]pyrimidin-4-yl)(methyl)amino)pyrrolidin-1-yl)-3-(1-methyl-1H-imidazol-4-yl)prop-2-en-1-one]	> 500 nM
C=CC(=O)N1C[C@H](N(C)c2nc(OCC34CCCN3CCC4)nc3c(F)c(-c4cccc5cccc(Cl)c45)ncc23)C[C@H]1CC#N [Example 119, 2-((2S,4R)-1-acryloyl-4-((7-(8-chloronaphthalen-1-yl)-8-fluoro-2-((tetrahydro-1H-pyrrolizin-7a(5H)-yl)methoxy)pyrido[4,3-d]pyrimidin-4-yl)(methyl)amino)pyrrolidin-2-yl)acetonitrile]	100 to 500 nM
CN(c1nc(OC[C@@]23CCCN2C[C@H](F)C3)nc2c(F)c(-c3cccc4ccc(F)c(Cl)c34)ncc12)[C@@H]1CCN(C(=O)/C=C/C2CNCCO2)C1 (stereo partly shown) [Example 122]	100 to 500 nM
CN(c1nc(OC[C@@]23CCCN2C[C@H](F)C3)nc2c(F)c(-c3cccc4ccc(F)c(Cl)c34)ncc12)[C@@H]1CCN(C(=O)/C=C/C2COCCN2)C1 (stereo partly drawn) [Example 123, (E)-1-((R)-3-((7-(8-chloro-7-fluoronaphthalen-1-yl)-8-fluoro-2-(((2R,7aS)-2-fluorotetrahydro-1H-pyrrolizin-7a(5H)-yl)methoxy)pyrido[4,3-d]pyrimidin-4-yl)(methyl)amino)pyrrolidin-1-yl)-3-(morpholin-3-yl)prop-2-en-1-one]	100 to 500 nM
CN1CC(/C=C/C(=O)N2CC[C@@H](N(C)c3nc(OC[C@@]45CCCN4C[C@H](F)C5)nc4c(F)c(-c5cccc6ccc(F)c(Cl)c56)ncc34)C2)C1 [Example 127, (E)-1-((R)-3-((7-(8-chloro-7-fluoronaphthalen-1-yl)-8-fluoro-2-(((2R,7aS)-2-fluorotetrahydro-1H-pyrrolizin-7a(5H)-yl)methoxy)pyrido[4,3-d]pyrimidin-4-yl)(methyl)amino)pyrrolidin-1-yl)-3-(1-methylazetidin-3-yl)prop-2-en-1-one]	100 to 500 nM
CN(c1nc(OCC23CCCN2CCC3)nc2c1CCN(c1cccc3cccc(Cl)c13)C2)[C@@H]1CCN(C(=O)/C=C/c2nc(C3(C)CC3)no2)C1 [Example 128, (R,E)-1-(3-((7-(8-chloronaphthalen-1-yl)-2-((hexahydro-1H-pyrrolizin-7a-yl)methoxy)-5,6,7,8-tetrahydropyrido[3,4-d]pyrimidin-4-yl)(methyl)amino)pyrrolidin-1-yl)-3-(3-(1-methylcyclopropyl)-1,2,4-oxadiazol-5-yl)prop-2-en-1-one]	100 to 500 nM
CN(c1nc(OC[C@@]23CCCN2C[C@H](F)C3)nc2c(F)c(-c3cccc4cccc(Cl)c34)ncc12)[C@@H]1CCN(C(=O)/C=C/c2cn(C)cn2)C1 [Example 135, (E)-1-((R)-3-((7-(8-chloronaphthalen-1-yl)-8-fluoro-2-(((2R,7aS)-2-fluorohexahydro-1H-pyrrolizin-7a-yl)methoxy)pyrido[4,3-d]pyrimidin-4-yl)(methyl)amino)pyrrolidin-1-yl)-3-(1-methyl-1H-imidazol-4-yl)prop-2-en-1-one]	100 to 500 nM
Cc1nsc(/C=C/C(=O)N2CC[C@@H](N(C)c3nc(OCC45CCCN4CCC5)nc4c(F)c(-c5cccc6cccc(Cl)c56)ncc34)C2)n1 [Example 138, (R,E)-1-(3-((7-(8-chloronaphthalen-1-yl)-8-fluoro-2-((tetrahydro-1H-pyrrolizin-7a(5H)-yl)methoxy)pyrido[4,3-d]pyrimidin-4-yl)(methyl)amino)pyrrolidin-1-yl)-3-(3-methyl-1,2,4-thiadiazol-5-yl)prop-2-en-1-one]	10 to 100 nM
CN(c1nc(OCC23CCCN2CCC3)nc2c1CCN(c1cccc3cccc(Cl)c13)C2)[C@@H]1CCN(C(=O)/C=C/c2nc([C@H]3C[C@@H]3F)no2)C1 [Example 141, (E)-1-((R)-3-((7-(8-chloronaphthalen-1-yl)-2-((hexahydro-1H-pyrrolizin-7a-yl)methoxy)-5,6,7,8-tetrahydropyrido[3,4-d]pyrimidin-4-yl)(methyl)amino)pyrrolidin-1-yl)-3-(3-((1R,2S)-2-fluorocyclopropyl)-1,2,4-oxadiazol-5-yl)prop-2-en-1-one]	10 to 100 nM
Cc1coc(/C=C/C(=O)N2CC[C@@H](N(C)c3nc(OCC45CCCN4CCC5)nc4c(F)c(-c5cccc6cccc(Cl)c56)ncc34)C2)n1 [Example 143, (R,E)-1-(3-((7-(8-chloronaphthalen-1-yl)-8-fluoro-2-((tetrahydro-1H-pyrrolizin-7a(5H)-yl)methoxy)pyrido[4,3-d]pyrimidin-4-yl)(methyl)amino)pyrrolidin-1-yl)-3-(4-methyloxazol-2-yl)prop-2-en-1-one]	100 to 500 nM

Results, then the compound that gave them:

IC50	Structure (SMILES)
10 to 100 nM	CN(c1nc(OC[C@@]23CCCN2C[C@H](F)C3)nc2c(F)c(-c3cccc4cccc(Cl)c34)ncc12)[C@@H]1CCN(C(=O)/C=C/c2nc(C3CCC3)no2)C1 [Example 111, (E)-1-((R)-3-((7-(8-chloronaphthalen-1-yl)-8-fluoro-2-(((2R,7aS)-2-fluorohexahydro-1H-pyrrolizin-7a-yl)methoxy)pyrido[4,3-d]pyrimidin-4-yl)(methyl)amino)pyrrolidin-1-yl)-3-(3-cyclobutyl-1,2,4-oxadiazol-5-yl)prop-2-en-1-one]
10 to 100 nM	CN(c1nc(OC[C@@]23CCCN2C[C@H](F)C3)nc2c1CCN(c1cccc3cccc(Cl)c13)C2)[C@@H]1CCN(C(=O)/C=C/c2nc(C3(C)CC3)no2)C1 [Example 114, (E)-1-((R)-3-((7-(8-chloronaphthalen-1-yl)-2-(((2R,7aS)-2-fluorohexahydro-1H-pyrrolizin-7a-yl)methoxy)-5,6,7,8-tetrahydropyrido[3,4-d]pyrimidin-4-yl)(methyl)amino)pyrrolidin-1-yl)-3-(3-(1-methylcyclopropyl)-1,2,4-oxadiazol-5-yl)prop-2-en-1-one]
10 to 100 nM	C=CC(=O)N1C[C@H](N(C)c2nc(OCC34CCCN3CCC4)nc3c(F)c(-c4cccc5cccc(Cl)c45)ncc23)CC1C#N (stereo partly drawn) [Example 118, (4R)-1-acryloyl-4-((7-(8-chloronaphthalen-1-yl)-8-fluoro-2-((hexahydro-1H-pyrrolizin-7a-yl)methoxy)pyrido[4,3-d]pyrimidin-4-yl)(methyl)amino)pyrrolidine-2-carbonitrile]
10 to 100 nM	CN(c1nc(OC[C@@]23CCCN2C[C@H](F)C3)nc2c1CCN(c1cccc3cccc(Cl)c13)C2)[C@@H]1CCN(C(=O)/C=C/c2nc(C3CC3)no2)C1 [Example 120, (E)-1-((R)-3-((7-(8-chloronaphthalen-1-yl)-2-(((2R,7aS)-2-fluorohexahydro-1H-pyrrolizin-7a-yl)methoxy)-5,6,7,8-tetrahydropyrido[3,4-d]pyrimidin-4-yl)(methyl)amino)pyrrolidin-1-yl)-3-(3-cyclopropyl-1,2,4-oxadiazol-5-yl)prop-2-en-1-one]
10 to 100 nM	CN1CCCC1/C=C/C(=O)N1CC[C@@H](N(C)c2nc(OC[C@@]34CCCN3C[C@H](F)C4)nc3c(F)c(-c4cccc5ccc(F)c(Cl)c45)ncc23)C1 (stereo partly drawn) [Example 124, (E)-1-((R)-3-((7-(8-chloro-7-fluoronaphthalen-1-yl)-8-fluoro-2-(((2R,7aS)-2-fluorotetrahydro-1H-pyrrolizin-7a(5H)-yl)methoxy)pyrido[4,3-d]pyrimidin-4-yl)(methyl)amino)pyrrolidin-1-yl)-3-(1-methylpyrrolidin-2-yl)prop-2-en-1-one]
10 to 100 nM	CN(c1nc(OCC23CCCN2CCC3)nc2c(F)c(-c3cccc4cccc(Cl)c34)ncc12)[C@@H]1CCN(C(=O)/C=C/c2nc([C@H]3C[C@@H]3F)no2)C1 [Example 129, (E)-1-((R)-3-((7-(8-chloronaphthalen-1-yl)-8-fluoro-2-((tetrahydro-1H-pyrrolizin-7a(5H)-yl)methoxy)pyrido[4,3-d]pyrimidin-4-yl)(methyl)amino)pyrrolidin-1-yl)-3-(3-((1R,2S)-2-fluorocyclopropyl)-1,2,4-oxadiazol-5-yl)prop-2-en-1-one]
10 to 100 nM	CC(C)c1noc(/C=C/C(=O)N2CC[C@@H](N(C)c3nc(OC[C@@]45CCCN4C[C@H](F)C5)nc4c3CCN(c3cccc5cccc(Cl)c35)C4)C2)n1 [Example 136, (E)-1-((R)-3-((7-(8-chloronaphthalen-1-yl)-2-(((2R,7aS)-2-fluorohexahydro-1H-pyrrolizin-7a-yl)methoxy)-5,6,7,8-tetrahydropyrido[3,4-d]pyrimidin-4-yl)(methyl)amino)pyrrolidin-1-yl)-3-(3-isopropyl-1,2,4-oxadiazol-5-yl)prop-2-en-1-one]
10 to 100 nM	C=CC(=O)N1CC[C@@H](N(C)c2nc(OC[C@@]34CCCN3C[C@H](O)C4)nc3c(F)c(-c4cccc5cccc(Cl)c45)ncc23)C1 [Example 137, 1-((R)-3-((7-(8-chloronaphthalen-1-yl)-8-fluoro-2-(((2R,7aS)-2-hydroxytetrahydro-1H-pyrrolizin-7a(5H)-yl)methoxy)pyrido[4,3-d]pyrimidin-4-yl)(methyl)amino)pyrrolidin-1-yl)prop-2-en-1-one]
